What was measured:
SCLC strain SHP-77 = experiment: Colorimetric tetrazolium (MTT) assay for cell survival, SCLC strain SHP-77; type: cell-based, human
Protocol: (§1) In general, Anti-bradykinin activity was determined by the classical guinea pig ileum assay and on Chinese hamster ovary (CHO) cells expressing cloned human bradykinin B2 receptors. Anti-tumor activity was determined on cultured human cancer cell lines using the standard tetrazolium (MTT) assay.
Cell growth and survival were measured by a rapid colorimetric assay based on the tetrazolium salt MTT (3-(4,5-dimethylthiazol-2-yl)-2,5-diphenyl tetrazolium bromide) (Mosmann, J Immunol. Methods 65: 55–63, 1983, with minor modifications). Briefly, 1,000 normal lung fibroblasts or normal epithelial BEAS-2B cells, 1,000 or 5,000 viable non-SCLC cells or 10,000 viable SCLC cells were plated in 100 μL of growth medium in 96-well flat-bottomed microtiter plates. Cells were incubated overnight to allow recovery. Compounds to be tested were added to the cells in triplicate in a range of concentrations and the cells were incubated at 37° C., 5% CO2, with 100% humidity. Control cells were treated in the same way without antagonists. […] Plates were incubated for 4 days, allowing sufficient time for cell replication and compound-induced cell death to occur. On day 5, 25 μL of a 2 mg/mL solution of MTT (Sigma) dissolved in RMPI-1640was added to each well. The plate was incubated for 4 h at 37° C. The supernate was removed and the blue formazan complex was dissolved by adding 100 μL of 0.02 N HCl in 75% isopropanol to all wells. Absorbance was immediately determined using a scanning multiwell plate reader. B9870 caused 50% cell death at a concentration of 0.15 μM under these conditions.

[1] = test system: bradykinin response of isolated guinea pig ileum; experiment: Anti-bradykinin activity on isolated guinea pig ileum; settings: isolated guinea pig ileum; pD2 of bradykinin is 7.4; higher numbers indicate higher potency
Protocol: as §1
Male Hartley guinea pigs that had been deprived of food overnight were sacrificed, and sections of terminal ileum, 25 mm in length, were dissected, attached to tissue holders and immersed in 10 ml tissue baths containing Krebs' solution bubbled with 95% O2/5% CO2. Tissues were placed under 1 g tension and incubated for 1 h equilibration. Concentration-effect curves were constructed to bradykinin in the absence and presence of new compounds.

| Compound | MTT: ED50 for killing of SCLC strain SHP-77 in vitro (SCLC strain SHP-77; SCLC strain SHP-77 in vitro) | GPI: pA2 for bradykinin antagonist activity on isolated guinea pig ileum [1] | MTT: ED50 for killing of SCLC strain SHP-77 in vitro (SCLC strain SHP-77; Table 1, SHP-77, MTT, 4 days) |
| --- | --- | --- | --- |
| O=C(NC1CN2CCC1CC2)C(NC(=NC1CCCCC1)NC1CCCCC1)C1Cc2ccccc2C1 (stereo not drawn) [M12] | 20 µM | 5.0 | – |
| O=C(NC1CN2CCC1CC2)C(Cc1ccc2ccccc2c1)NC(=NC1CCCCC1)NC1CCCCC1 (stereo not drawn) [M18] | 30 µM | 6.6 | – |
| CC1(C)CC(NC(=O)[C@@H](N)Cc2ccc3ccccc3c2)CC(C)(C)N1 [M218] | Inact | 4.8 | – |
| CC1(C)CC(NC(=O)[C@@H](NC(=NC2CCCCC2)NC2CCCCC2)C2Cc3ccccc3C2)CC(C)(C)N1 [M236] | >50 µM | 4.7 | – |
| CC1(C)CC(NC(=O)[C@H](Cc2c(F)c(F)c(F)c(F)c2F)NC(=NC2CCCCC2)NC2CCCCC2)CC(C)(C)N1 [M240] | 32 µM | 5.1 | – |
| COC(=O)C1(NC(=O)[C@H](Cc2ccc3ccccc3c2)NC(=NC2CCCCC2)NC2CCCCC2)CC(C)(C)NC(C)(C)C1 [M244A] | 12 µM | 5.0 | – |
| CC1(C)CC(NC(=O)[C@H](Cc2ccc3ccccc3c2)NC(=NC2CCCCC2)NC2CCCCC2)(C(=O)O)CC(C)(C)N1 [M244B] | Inact | 4.9 | – |
| CC1(C)CC(NC(=O)[C@@H](Cc2ccc3ccccc3c2)NC(=NC2CCCCC2)NC2CCCCC2)CC(C)(C)N1 [M246] | >50 µM | 5.7 | – |
| CC1(C)CC(NC(=O)[C@H](Cc2ccc3ccccc3c2)NC(=O)C=Cc2c(F)c(F)c(F)c(F)c2F)CC(C)(C)N1 [M248] | 3.2 µM | 6.2 | – |
| CC1(C)CC(NC(=O)[C@H](Cc2ccc3ccccc3c2)NC(=O)C2=CN3CCC2CC3)CC(C)(C)N1 [M252] | Inact | 4.8 | – |
| CC1(C)CC(NC(=O)[C@H](Cc2ccc3ccccc3c2)NC(=N)CCCCCCCCCCCCC(=N)N[C@@H](Cc2ccc3ccccc3c2)C(=O)NC2CC(C)(C)NC(C)(C)C2)CC(C)(C)N1 [M254-1] | 5 µM | 5.1 | – |
| CC1(C)CC(NC(=O)[C@H](Cc2ccc3ccccc3c2)NC(=N)CCCCCCCCCCCCC(=N)N[C@@H](Cc2ccc3ccccc3c2)C(=O)NC2CC(C)(C)NC(C)(C)C2)CC(C)(C)N1 [M254-2] | 5 µM | 5.8 | – |
| CC1(C)CC(NC(=O)[C@H](Cc2ccc3ccccc3c2)NC(=N)CCCCCCCCCCCCC(=N)N[C@@H](Cc2ccc3ccccc3c2)C(=O)NC2CC(C)(C)NC(C)(C)C2)CC(C)(C)N1 [M254] | 5 µM | 5.1 | – |
| CC1(C)CC(NC(=O)[C@@H](Cc2ccc3ccccc3c2)NC(=NC2CCCCC2)NC2CCCCC2)CC(C)(C)N1 [M262] | 6 µM | 5.3 | – |
| CC1(C)CC(NC(=O)[C@H](Cc2c[nH]c3ccccc23)NC(=NC2CCCCC2)NC2CCCCC2)CC(C)(C)N1 [M264] | 16 µM | 4.7 | – |
| CC1(C)CC(NC(=O)Cc2ccc(NC(=NC3CCCCC3)NC3CCCCC3)cc2)CC(C)(C)N1 [M266] | 42 µM | 4.8 | – |
| CC1(C)C=C(C(=O)NCCNC(=O)C(Cc2ccc3ccccc3c2)NC(=O)C=Cc2c(F)c(F)c(F)c(F)c2F)C(C)(C)N1 (stereo not drawn) [M268] | 10 µM | 5.2 | – |
| CC1(C)CC(NC(=O)[C@H](Cc2ccc3ccccc3c2)NC(=O)C(c2ccccc2)c2ccccc2)CC(C)(C)N1 [M272] | 9 µM | 5.2 | – |
| COc1cc(C=CC(=O)N[C@@H](Cc2ccc3ccccc3c2)C(=O)NC2CC(C)(C)NC(C)(C)C2)cc(OC)c1O [M274] | 36 µM | 4.7 | – |
| CC1(C)CC(NC(=O)[C@H](Cc2ccc3ccccc3c2)NC(=O)C(C2CCCCC2)C2CCCCC2)CC(C)(C)N1 [M276] | 4.6 µM | 5.3 | – |
| CC1(C)CC(NC(=O)[C@@H](NC(=N)CCCCCCCCCCCCC(=N)N[C@H](C(=O)NC2CC(C)(C)NC(C)(C)C2)C2Cc3ccccc3C2)C2Cc3ccccc3C2)CC(C)(C)N1 [M280] | 6 µM | 5.2 | – |
| CC1(C)CC(NC(=O)C(Cc2ccc3ccccc3c2)NC(=O)CCSSCCC(=O)NC(Cc2ccc3ccccc3c2)C(=O)NC2CC(C)(C)NC(C)(C)C2)CC(C)(C)N1 (stereo not drawn) [M286] | 24 µM | 5.1 | – |
| Aaa-Pac-hPhe-Arg [M752-6] | – | – | Inact |
| Aaa-Ser-Pac-hPhe-Arg [M752-5] | – | – | Inact |
| Ac-OC2Y-Arg [M784] | – | – | Inact |
| Aca-DArg-Arg-Aud-Ser-D5F5-Oic-Arg [M960] | – | – | 21 µM |
| Cin-hPhe-Arg [M706] | – | – | Inact |
| DArg-Arg-Aud-DIgl-PFF-Arg [M844] | – | – | 12 µM |
| DDD-(DArg-Arg-Aud-DIgl-hPhe-Arg)2 [M786] | – | – | 3.2 µM |
